System: 857933-349-R-J2-PDC complex spheroids, viability
Test: Anticancer human tumor 857933-349-R-J2-PDC patient-derived colon adenocarcinoma cell line growth inhibition [GQUAD]
Settings: for IC50: curve of first compound; for viability, T/C: stronger effect = lower value
How it was run: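 Viability of tumor cells grown as complex spheroids with endothelial and stromal cells, exposed to drug combinations. Top concentration at or near clinical Cmax (else 10 microM), diluted in half-log increments.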

[1] = second compound 0.0316 µM, first compound 0.0316 µM
[2] = second compound 0.0316 µM, first compound 0.1 µM
[3] = second compound 0.0316 µM, first compound 0.316 µM
[4] = second compound 0.0316 µM, first compound 1 µM
[5] = second compound 0.0316 µM, first compound 3.16 µM
[6] = second compound 0.0316 µM, first compound 10 µM
[7] = second compound 0.1 µM, first compound 0.0316 µM
[8] = second compound 0.1 µM, first compound 0.1 µM
[9] = second compound 0.1 µM, first compound 0.316 µM
[10] = second compound 0.1 µM, first compound 1 µM
[11] = second compound 0.1 µM, first compound 3.16 µM
[12] = second compound 0.1 µM, first compound 10 µM
[13] = second compound 0.316 µM, first compound 0.0316 µM
[14] = second compound 0.316 µM, first compound 0.1 µM
[15] = second compound 0.316 µM, first compound 0.316 µM
[16] = second compound 0.316 µM, first compound 1 µM
[17] = second compound 0.316 µM, first compound 3.16 µM
[18] = second compound 0.316 µM, first compound 10 µM
[19] = second compound 1 µM, first compound 0.0316 µM
[20] = second compound 1 µM, first compound 0.1 µM
[21] = second compound 1 µM, first compound 0.316 µM
[22] = second compound 1 µM, first compound 1 µM
[23] = second compound 1 µM, first compound 3.16 µM
[24] = second compound 1 µM, first compound 10 µM
[25] = second compound 3.16 µM, first compound 0.0316 µM
[26] = second compound 3.16 µM, first compound 0.1 µM
[27] = second compound 3.16 µM, first compound 0.316 µM
[28] = second compound 3.16 µM, first compound 1 µM
[29] = second compound 3.16 µM, first compound 3.16 µM
[30] = second compound 3.16 µM, first compound 10 µM
[31] = second compound 10 µM, first compound 0.0316 µM
[32] = second compound 10 µM, first compound 0.1 µM
[33] = second compound 10 µM, first compound 0.316 µM
[34] = second compound 10 µM, first compound 1 µM
[35] = second compound 10 µM, first compound 3.16 µM
[36] = second compound 10 µM, first compound 10 µM
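Also: spheroids exposed to compounds for one week before readout.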
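For viability, T/C in this document: percent viability relative to vehicle DMSO wells taken as 100%.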

With `Cc1cccc(N(C)C(=O)C2C(O)CCN2c2nc(C)cc(C(F)(F)F)c2C#N)c1` (stereo unspecified) + Cc1cnc(CNC(=O)c2c(=O)c3ccc(N4CCCN(C)CC4)nc3n3c2sc2ccccc23)cn1 the IC50 (second compound 0.0316 µM) was > 10000 nM, the IC50 (second compound 0.1 µM) was > 10000 nM and the IC50 (second compound 0.316 µM) was < 31.6 nM. The IC50 (second compound 1 µM) was < 31.6 nM, the IC50 (second compound 3.16 µM) was < 31.6 nM and the IC50 (second compound 10 µM) was < 31.6 nM. For the same molecule, the viability, T/C [1] was 92%, the viability, T/C [2] was 88.2% and the viability, T/C [3] was 94.4%. For the same molecule, the viability, T/C [4] was 82.3%, the viability, T/C [5] was 95.1% and the viability, T/C [6] was 77.6%. For the same molecule, the viability, T/C [7] was 70.8%, the viability, T/C [8] was 73.3% and the viability, T/C [9] was 62.9%. It also gave a viability, T/C [10] of 58.8%, a viability, T/C [11] of 74.5% and a viability, T/C [12] of 64.1%. It also gave a viability, T/C [13] of 24.6%, a viability, T/C [14] of 29.8% and a viability, T/C [15] of 27.1%. The viability, T/C [16] was 23.4%, the viability, T/C [17] was 24.2% and the viability, T/C [18] was 22.7%. The viability, T/C [19] was 4.6%, the viability, T/C [20] was 7.14% and the viability, T/C [21] was 5.51%. It also gave a viability, T/C [22] of 4.02%, a viability, T/C [23] of 4.11% and a viability, T/C [24] of 3.8%. It also gave a viability, T/C [25] of 2.72%, a viability, T/C [26] of 2.17% and a viability, T/C [27] of 1.95%. It also gave a viability, T/C [28] of 2.02%, a viability, T/C [29] of 2.19% and a viability, T/C [30] of 1.89%. It also gave a viability, T/C [31] of 2.6%, a viability, T/C [32] of 2.28% and a viability, T/C [33] of 2.23%. The viability, T/C [34] was 1.9%, the viability, T/C [35] was 1.89% and the viability, T/C [36] was 0.69%.
With `Cn1ncnc1[C@H]1c2n[nH]c(=O)c3cc(F)cc(c23)N[C@@H]1c1ccc(F)cc1` + Cc1cnc(CNC(=O)c2c(=O)c3ccc(N4CCCN(C)CC4)nc3n3c2sc2ccccc23)cn1 the IC50 (second compound 0.0316 µM) was > 316 nM, the IC50 (second compound 0.1 µM) was > 316 nM and the IC50 (second compound 0.316 µM) was < 0.999 nM. For the same molecule, the IC50 (second compound 1 µM) was < 0.999 nM, the IC50 (second compound 3.16 µM) was < 0.999 nM and the IC50 (second compound 10 µM) was < 0.999 nM. The viability, T/C (second compound 0.0316 µM, first compound 0.000999 µM) was 88.5%, the viability, T/C (second compound 0.0316 µM, first compound 0.00316 µM) was 89.1% and the viability, T/C (second compound 0.0316 µM, first compound 0.00999 µM) was 93.4%. It also gave a viability, T/C [1] of 95%, a viability, T/C (second compound 0.0316 µM, first compound 0.0999 µM) of 88.9% and a viability, T/C [3] of 81.7%. For the same molecule, the viability, T/C (second compound 0.1 µM, first compound 0.000999 µM) was 59.6%, the viability, T/C (second compound 0.1 µM, first compound 0.00316 µM) was 73.6% and the viability, T/C (second compound 0.1 µM, first compound 0.00999 µM) was 62.5%. For the same molecule, the viability, T/C [7] was 71.9%, the viability, T/C (second compound 0.1 µM, first compound 0.0999 µM) was 73.5% and the viability, T/C [9] was 65.6%. The viability, T/C (second compound 0.316 µM, first compound 0.000999 µM) was 28.8%, the viability, T/C (second compound 0.316 µM, first compound 0.00316 µM) was 27.8% and the viability, T/C (second compound 0.316 µM, first compound 0.00999 µM) was 27.1%. The viability, T/C [13] was 22.5%, the viability, T/C (second compound 0.316 µM, first compound 0.0999 µM) was 29.8% and the viability, T/C [15] was 31.5%. For the same molecule, the viability, T/C (second compound 1 µM, first compound 0.000999 µM) was 7%, the viability, T/C (second compound 1 µM, first compound 0.00316 µM) was 5.78% and the viability, T/C (second compound 1 µM, first compound 0.00999 µM) was 5.4%. It also gave a viability, T/C [19] of 5.4%, a viability, T/C (second compound 1 µM, first compound 0.0999 µM) of 5.1% and a viability, T/C [21] of 5.12%. For the same molecule, the viability, T/C (second compound 3.16 µM, first compound 0.000999 µM) was 2.09%, the viability, T/C (second compound 3.16 µM, first compound 0.00316 µM) was 2.13% and the viability, T/C (second compound 3.16 µM, first compound 0.00999 µM) was 2.38%. The viability, T/C [25] was 2.9%, the viability, T/C (second compound 3.16 µM, first compound 0.0999 µM) was 3.1% and the viability, T/C [27] was 2.73%. For the same molecule, the viability, T/C (second compound 10 µM, first compound 0.000999 µM) was 1.74%, the viability, T/C (second compound 10 µM, first compound 0.00316 µM) was 2.35% and the viability, T/C (second compound 10 µM, first compound 0.00999 µM) was 2.39%. The viability, T/C [31] was 2.68%, the viability, T/C (second compound 10 µM, first compound 0.0999 µM) was 2.08% and the viability, T/C [33] was 2.52%.
With `O=C(c1cc(Cc2n[nH]c(=O)c3ccccc23)ccc1F)N1CCN(C(=O)C2CC2)CC1` + Cc1cnc(CNC(=O)c2c(=O)c3ccc(N4CCCN(C)CC4)nc3n3c2sc2ccccc23)cn1 the IC50 (second compound 0.0316 µM) was > 10000 nM, the IC50 (second compound 0.1 µM) was > 10000 nM and the IC50 (second compound 0.316 µM) was < 31.6 nM. The IC50 (second compound 1 µM) was < 31.6 nM, the IC50 (second compound 3.16 µM) was < 31.6 nM and the IC50 (second compound 10 µM) was < 31.6 nM. The viability, T/C [1] was 101%, the viability, T/C [2] was 88.6% and the viability, T/C [3] was 99.9%. It also gave a viability, T/C [4] of 83.7%, a viability, T/C [5] of 84.8% and a viability, T/C [6] of 77.8%. The viability, T/C [7] was 66%, the viability, T/C [8] was 80.9% and the viability, T/C [9] was 62%. The viability, T/C [10] was 58.4%, the viability, T/C [11] was 68.7% and the viability, T/C [12] was 72.3%. The viability, T/C [13] was 29.3%, the viability, T/C [14] was 31.1% and the viability, T/C [15] was 26.4%. It also gave a viability, T/C [16] of 31.4%, a viability, T/C [17] of 34% and a viability, T/C [18] of 38.4%. The viability, T/C [19] was 4.96%, the viability, T/C [20] was 4.81% and the viability, T/C [21] was 4.45%. The viability, T/C [22] was 3.67%, the viability, T/C [23] was 5.47% and the viability, T/C [24] was 6.38%. The viability, T/C [25] was 2.65%, the viability, T/C [26] was 2.92% and the viability, T/C [27] was 2.93%. The viability, T/C [28] was 3.33%, the viability, T/C [29] was 2.59% and the viability, T/C [30] was 2.87%. For the same molecule, the viability, T/C [31] was 1.22%, the viability, T/C [32] was 2.2% and the viability, T/C [33] was 2.36%. It also gave a viability, T/C [34] of 1.84%, a viability, T/C [35] of 2.2% and a viability, T/C [36] of 1.68%.
